Where a SMILES comes first, the peptide text is derived from it.
Tests used:
[1] = biological target: T1, Progesterone receptor (Homo sapiens, UniProt P06401); type: functional
T1 sequence (P06401 whole entry): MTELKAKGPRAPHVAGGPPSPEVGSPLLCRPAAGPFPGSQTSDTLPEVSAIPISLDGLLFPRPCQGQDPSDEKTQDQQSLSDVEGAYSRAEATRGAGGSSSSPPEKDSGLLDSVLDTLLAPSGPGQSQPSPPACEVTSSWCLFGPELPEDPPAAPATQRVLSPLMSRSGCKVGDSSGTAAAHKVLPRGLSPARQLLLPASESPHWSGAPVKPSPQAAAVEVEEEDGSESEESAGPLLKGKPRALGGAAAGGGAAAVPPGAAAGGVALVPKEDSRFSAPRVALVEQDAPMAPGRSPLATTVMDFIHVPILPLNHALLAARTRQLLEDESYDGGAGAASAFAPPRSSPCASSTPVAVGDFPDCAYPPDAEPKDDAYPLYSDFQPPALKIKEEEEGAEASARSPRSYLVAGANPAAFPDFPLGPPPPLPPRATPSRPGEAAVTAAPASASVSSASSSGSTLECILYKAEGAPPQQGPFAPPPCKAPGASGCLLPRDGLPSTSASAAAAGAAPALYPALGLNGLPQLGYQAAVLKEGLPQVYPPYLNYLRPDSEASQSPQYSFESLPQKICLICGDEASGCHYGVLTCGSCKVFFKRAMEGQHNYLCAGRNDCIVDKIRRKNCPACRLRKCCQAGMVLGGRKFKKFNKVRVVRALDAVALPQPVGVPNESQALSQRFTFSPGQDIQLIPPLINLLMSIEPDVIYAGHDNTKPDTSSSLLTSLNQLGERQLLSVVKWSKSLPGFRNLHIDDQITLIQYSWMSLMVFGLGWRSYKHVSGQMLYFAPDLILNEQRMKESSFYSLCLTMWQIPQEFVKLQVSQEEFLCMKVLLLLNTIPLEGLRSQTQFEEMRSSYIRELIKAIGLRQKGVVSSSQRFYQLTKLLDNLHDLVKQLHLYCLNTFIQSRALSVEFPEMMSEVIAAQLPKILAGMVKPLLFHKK

[2] = biological target: T2, Neuropeptide Y receptor type 1 (Homo sapiens, UniProt P25929)
T2 sequence (P25929 whole entry): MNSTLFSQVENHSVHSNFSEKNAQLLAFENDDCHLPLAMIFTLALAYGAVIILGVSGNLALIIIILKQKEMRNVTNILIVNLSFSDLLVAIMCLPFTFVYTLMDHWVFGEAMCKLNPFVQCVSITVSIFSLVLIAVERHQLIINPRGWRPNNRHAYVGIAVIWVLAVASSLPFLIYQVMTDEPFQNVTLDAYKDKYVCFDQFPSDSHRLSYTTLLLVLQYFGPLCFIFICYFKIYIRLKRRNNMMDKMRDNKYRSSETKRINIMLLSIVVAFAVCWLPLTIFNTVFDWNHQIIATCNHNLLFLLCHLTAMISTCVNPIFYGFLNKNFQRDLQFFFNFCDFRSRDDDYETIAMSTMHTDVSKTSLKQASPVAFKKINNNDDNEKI

[3] = biological target: Vasopressin V2 receptor (Homo sapiens, UniProt P30518)
[4] = biological target: 5-hydroxytryptamine receptor 2B (Homo sapiens, UniProt P41595); type: functional, cell-based
[5] = biological target: Sodium-dependent serotonin transporter (Homo sapiens, UniProt P31645)
[6] = biological target: Cannabinoid receptor 1 (Homo sapiens, UniProt P21554); type: functional, cell-based
[7] = biological target: Neuronal acetylcholine receptor subunit alpha-4 (Homo sapiens, UniProt P43681)
[8] = biological target: T3, Amine oxidase [flavin-containing] A (Homo sapiens, UniProt P21397); type: functional
T3 sequence (P21397 whole entry): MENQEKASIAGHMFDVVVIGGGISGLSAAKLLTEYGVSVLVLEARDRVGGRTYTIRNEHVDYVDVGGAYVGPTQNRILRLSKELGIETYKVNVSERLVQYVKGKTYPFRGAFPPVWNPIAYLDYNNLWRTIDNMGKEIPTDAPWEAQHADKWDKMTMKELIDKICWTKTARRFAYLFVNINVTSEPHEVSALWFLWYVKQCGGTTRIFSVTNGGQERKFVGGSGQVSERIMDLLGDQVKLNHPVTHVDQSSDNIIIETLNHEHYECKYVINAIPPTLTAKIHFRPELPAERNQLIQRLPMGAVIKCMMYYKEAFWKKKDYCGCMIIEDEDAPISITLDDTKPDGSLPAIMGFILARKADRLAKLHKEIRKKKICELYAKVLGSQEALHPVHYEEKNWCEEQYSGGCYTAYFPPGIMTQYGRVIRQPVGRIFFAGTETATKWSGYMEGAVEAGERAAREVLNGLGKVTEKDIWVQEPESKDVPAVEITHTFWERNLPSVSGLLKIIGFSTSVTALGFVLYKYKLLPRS

[9] = biological target: T4, Thromboxane A2 receptor (Homo sapiens, UniProt P21731)
T4 sequence (P21731 whole entry): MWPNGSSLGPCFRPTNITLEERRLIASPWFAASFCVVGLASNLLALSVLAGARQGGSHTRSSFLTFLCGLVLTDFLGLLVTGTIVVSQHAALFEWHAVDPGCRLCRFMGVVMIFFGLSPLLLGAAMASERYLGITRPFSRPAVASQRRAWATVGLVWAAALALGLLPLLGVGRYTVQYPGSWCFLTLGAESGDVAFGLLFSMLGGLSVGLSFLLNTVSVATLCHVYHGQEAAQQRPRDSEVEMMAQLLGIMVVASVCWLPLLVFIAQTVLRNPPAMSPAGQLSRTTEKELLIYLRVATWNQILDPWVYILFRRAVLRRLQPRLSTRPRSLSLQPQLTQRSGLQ

[10] = biological target: Delta-type opioid receptor (Homo sapiens, UniProt P41143)
Also: assay procedure not described here.

Chain of Cannabinoid receptor 1 (P21554 whole entry): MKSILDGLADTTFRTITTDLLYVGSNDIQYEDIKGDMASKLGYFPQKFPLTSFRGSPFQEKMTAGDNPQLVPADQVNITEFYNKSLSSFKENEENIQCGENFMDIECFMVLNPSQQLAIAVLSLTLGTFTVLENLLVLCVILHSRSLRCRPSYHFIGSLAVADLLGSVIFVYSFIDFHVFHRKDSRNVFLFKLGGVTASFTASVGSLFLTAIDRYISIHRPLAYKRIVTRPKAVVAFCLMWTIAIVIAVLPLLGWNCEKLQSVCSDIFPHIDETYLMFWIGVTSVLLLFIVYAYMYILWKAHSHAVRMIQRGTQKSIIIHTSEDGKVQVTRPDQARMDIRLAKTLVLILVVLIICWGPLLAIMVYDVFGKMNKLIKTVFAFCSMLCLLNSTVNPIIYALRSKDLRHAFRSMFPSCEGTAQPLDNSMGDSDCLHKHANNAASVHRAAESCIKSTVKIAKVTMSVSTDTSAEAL
Chain of Sodium-dependent serotonin transporter (P31645 whole entry): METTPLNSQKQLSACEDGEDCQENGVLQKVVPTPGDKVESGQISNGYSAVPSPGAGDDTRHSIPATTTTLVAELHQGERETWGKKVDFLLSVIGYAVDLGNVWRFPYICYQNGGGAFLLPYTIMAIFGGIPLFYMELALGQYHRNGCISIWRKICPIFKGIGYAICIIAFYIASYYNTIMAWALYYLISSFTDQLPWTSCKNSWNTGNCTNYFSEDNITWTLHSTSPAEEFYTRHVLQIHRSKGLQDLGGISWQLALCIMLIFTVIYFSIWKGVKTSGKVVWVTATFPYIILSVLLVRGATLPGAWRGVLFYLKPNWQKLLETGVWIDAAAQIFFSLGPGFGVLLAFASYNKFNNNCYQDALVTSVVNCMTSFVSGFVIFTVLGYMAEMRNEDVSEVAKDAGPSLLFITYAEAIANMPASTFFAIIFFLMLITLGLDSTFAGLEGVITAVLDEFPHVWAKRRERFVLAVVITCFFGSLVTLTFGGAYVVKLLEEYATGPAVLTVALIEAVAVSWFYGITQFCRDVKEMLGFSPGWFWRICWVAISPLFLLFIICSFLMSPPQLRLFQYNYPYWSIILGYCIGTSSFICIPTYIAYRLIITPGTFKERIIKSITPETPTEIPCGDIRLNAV
Chain of Vasopressin V2 receptor (P30518 whole entry): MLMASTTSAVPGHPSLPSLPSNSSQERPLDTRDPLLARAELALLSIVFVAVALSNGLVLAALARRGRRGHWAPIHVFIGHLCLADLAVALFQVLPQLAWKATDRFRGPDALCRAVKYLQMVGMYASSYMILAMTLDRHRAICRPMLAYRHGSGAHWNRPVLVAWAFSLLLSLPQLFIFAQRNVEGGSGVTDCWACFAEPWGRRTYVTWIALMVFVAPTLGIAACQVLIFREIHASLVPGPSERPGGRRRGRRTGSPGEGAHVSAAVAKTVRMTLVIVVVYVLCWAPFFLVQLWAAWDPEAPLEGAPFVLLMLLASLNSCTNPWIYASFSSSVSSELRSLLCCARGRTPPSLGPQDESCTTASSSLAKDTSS
Chain of Delta-type opioid receptor (P41143 whole entry): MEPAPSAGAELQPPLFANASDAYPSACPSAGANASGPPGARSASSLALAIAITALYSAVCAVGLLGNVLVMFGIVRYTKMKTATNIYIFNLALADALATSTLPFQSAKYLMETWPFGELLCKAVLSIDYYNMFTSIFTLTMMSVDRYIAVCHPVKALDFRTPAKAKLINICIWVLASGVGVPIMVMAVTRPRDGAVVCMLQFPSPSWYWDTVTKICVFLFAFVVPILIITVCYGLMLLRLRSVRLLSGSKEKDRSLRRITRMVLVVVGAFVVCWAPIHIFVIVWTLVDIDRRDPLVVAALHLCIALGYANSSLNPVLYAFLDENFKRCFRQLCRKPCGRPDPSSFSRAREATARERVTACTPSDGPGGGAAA
Chain of Neuronal acetylcholine receptor subunit alpha-4 (P43681 whole entry): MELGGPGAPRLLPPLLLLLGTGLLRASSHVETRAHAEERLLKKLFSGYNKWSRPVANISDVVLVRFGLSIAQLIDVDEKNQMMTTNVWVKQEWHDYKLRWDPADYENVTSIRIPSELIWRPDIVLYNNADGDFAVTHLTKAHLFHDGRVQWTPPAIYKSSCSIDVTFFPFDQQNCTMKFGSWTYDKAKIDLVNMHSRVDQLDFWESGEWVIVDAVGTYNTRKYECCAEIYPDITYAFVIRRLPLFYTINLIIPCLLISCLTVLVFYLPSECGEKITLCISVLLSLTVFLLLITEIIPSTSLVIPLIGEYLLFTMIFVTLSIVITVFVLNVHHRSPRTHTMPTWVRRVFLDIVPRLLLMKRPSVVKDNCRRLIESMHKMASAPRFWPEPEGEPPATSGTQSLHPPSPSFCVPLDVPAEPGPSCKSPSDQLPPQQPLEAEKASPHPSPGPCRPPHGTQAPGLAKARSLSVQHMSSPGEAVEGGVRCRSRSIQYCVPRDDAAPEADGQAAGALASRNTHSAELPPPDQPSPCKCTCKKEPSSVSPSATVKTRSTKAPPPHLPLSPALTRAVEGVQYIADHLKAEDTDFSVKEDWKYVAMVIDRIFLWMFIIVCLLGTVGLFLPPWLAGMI
Chain of 5-hydroxytryptamine receptor 2B (P41595 whole entry): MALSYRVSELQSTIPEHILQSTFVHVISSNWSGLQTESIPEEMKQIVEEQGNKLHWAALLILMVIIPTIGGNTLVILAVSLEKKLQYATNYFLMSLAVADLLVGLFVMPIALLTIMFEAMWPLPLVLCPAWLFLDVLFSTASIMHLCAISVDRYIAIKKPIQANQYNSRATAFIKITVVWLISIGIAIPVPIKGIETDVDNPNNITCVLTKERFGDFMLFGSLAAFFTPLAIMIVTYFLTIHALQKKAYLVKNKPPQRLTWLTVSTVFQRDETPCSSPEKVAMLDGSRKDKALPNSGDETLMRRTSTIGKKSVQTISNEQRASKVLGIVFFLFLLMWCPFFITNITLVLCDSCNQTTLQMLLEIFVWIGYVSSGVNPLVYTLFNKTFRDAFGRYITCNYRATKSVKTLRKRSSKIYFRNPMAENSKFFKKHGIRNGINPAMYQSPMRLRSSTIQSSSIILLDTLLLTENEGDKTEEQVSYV

Structure (SMILES) | AC50 [1] | AC50 [2] | AC50 [3] | AC50 [4] | AC50 [5] | AC50 [6] | AC50 [7] | AC50 [8] | AC50 [9] | AC50 [10]
CCN(CC)CCCN(c1ccccc1)C1Cc2ccccc2C1 [APRINDINE] | > 30 µM | > 30 µM | > 30 µM | > 30 µM | 3.3 µM | > 30 µM | > 30 µM | > 30 µM | > 10 µM | > 30 µM
CCN(CC)Cc1nccn1-c1ccc([N+](=O)[O-])cc1C(=O)c1ccccc1Cl [NIZOFENONE] | > 30 µM | > 30 µM | > 30 µM | > 30 µM | > 30 µM | > 30 µM | 8.3 µM | > 30 µM | > 30 µM | > 30 µM
C[C@@H](Cc1ccccc1)N(C)Cc1ccccc1 [BENZPHETAMINE] | > 10 µM | > 10 µM | > 10 µM | > 10 µM | 0.075 µM | > 30 µM | > 10 µM | > 10 µM | > 10 µM | > 30 µM
CC(C(=O)O)c1ccc(C(=O)c2ccccc2)s1 (stereo not given) [TIAPROFENIC ACID] | > 10 µM | > 10 µM | > 10 µM | > 10 µM | > 10 µM | > 30 µM | > 10 µM | 18 µM | > 10 µM | > 30 µM
COc1cc(N)cn[n+]1-c1ccccc1 [AMEZINIUM METILSULFATE] | > 30 µM | > 30 µM | > 30 µM | > 30 µM | 17 µM | > 30 µM | > 10 µM | 11 µM | > 30 µM | > 30 µM
Cc1ccc(S(=O)(=O)NC(=O)N[C@H]2[C@H]3CC[C@@](C)([C@H]2O)C3(C)C)cc1 [GLIBORNURIDE] | > 30 µM | > 30 µM | > 30 µM | > 30 µM | > 30 µM | > 30 µM | > 30 µM | > 30 µM | > 30 µM | > 30 µM
CCCCC[C@H](O)CC[C@@H]1[C@H]2Cc3cccc(OCC(=O)O)c3C[C@H]2C[C@H]1O [TREPROSTINIL] | > 30 µM | > 30 µM | > 30 µM | > 30 µM | > 30 µM | > 30 µM | > 30 µM | > 30 µM | > 30 µM | > 30 µM
C[C@H](N)C(=O)N[C@@H](CCC(N)=O)C(=O)O [ALANYL GLUTAMINE] (H-Ala-Gln-OH) | > 30 µM | > 30 µM | > 30 µM | > 30 µM | > 30 µM | > 30 µM | > 30 µM | 15 µM | > 30 µM | > 30 µM
